Results published in paper PMC8204911 (ACS Pharmacology & Translational Science, 2021).
Residues, ends and D or L forms follow the SMILES beside them. *: point of attachment. Cbz = O=C(OCc1ccccc1)*; CH2F = FC*

Assays:
SARS-CoV-2 M^pro = SARS-CoV-2 M^pro (Severe acute respiratory syndrome coronavirus 2, UniProt P0DTD1); conditions: at 20 μM, authors' previous screening; cited from earlier work
caspase-3 = target: T1, caspase-3 (Homo sapiens, UniProt P42574); format: biochemical; conditions: read-out: Caspase-3 IC50
T1 sequence (P42574 29-175 limits assumed): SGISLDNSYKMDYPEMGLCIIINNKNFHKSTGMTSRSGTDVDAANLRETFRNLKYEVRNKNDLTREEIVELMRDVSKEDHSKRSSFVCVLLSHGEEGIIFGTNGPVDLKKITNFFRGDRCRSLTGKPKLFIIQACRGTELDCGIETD
T1 sequence (P42574 176-277 limits assumed): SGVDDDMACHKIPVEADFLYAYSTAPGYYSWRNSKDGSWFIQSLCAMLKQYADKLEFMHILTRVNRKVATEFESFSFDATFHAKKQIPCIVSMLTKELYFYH

Row | Compound | inhibition of M^pro enzymatic activity (SARS-CoV-2 M^pro) [%] | IC50 (caspase-3) [nM]
1 | CCC[C@H](NC(=O)[C@@H]1[C@H]2CCC[C@H]2CN1C(=O)[C@@H](NC(=O)[C@@H](NC(=O)c1cnccn1)C1CCCCC1)C(C)(C)C)C(=O)C(=O)NC1CC1 [telaprevir] | 31 | –
2 | COC(=O)C[C@H](NC(=O)[C@H](C)NC(=O)[C@@H](NC(=O)OCc1ccccc1)C(C)C)C(=O)CF [Z-VAD-FMK] (Cbz-Val-Ala-Asp(OMe)-CH2F) | – | 100 ± 40
